According to article PMC8533176, “1,5-Benzodiazepin-2(3H)-ones: In Vitro Evaluation as Antiparkinsonian Agents” (Antioxidants, 2021):

Columns and labels:
[1] = system: SH-SY5Y cells; assay: Cytotoxicity, MTT assay, SH-SY5Y; type: cell-based; conditions: Homo sapiens, MTT, cytotoxicity, read-out: SH-SY5Y IC50
Method in brief: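 Cells treated with 5–200 µM compound (DMSO vehicle, four replicates) after overnight attachment. Viability read by MTT reduction (2 h, 37 °C, dark; formazan in DMSO, A570) relative to vehicle controls; IC50 from dose–response regression.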

[2] = system: SH-SY5Y cells; assay: Intracellular GSH recovery (monochlorobimane); type: cell-based, human; conditions: H2O2 250 µM 24 h; 5, 10 and 20 µM
Method: For intracellular GSH determination studies, the method of Senft et al. was used. In summary, 3 × 10^3 SH-SY5Y cells were seeded in 96-well culture black clear bottom plates and after 24 h were treated with the test compound for an additional 24 h. Then, they were exposed to H2O2 for 24 h. After the incubation period, cells were loaded with 30 µM mClB and incubated at 37 °C for 30 min in a CO2 incubator as described by Sebastia et al.. At the end of the mClB incubation period, fluorescence was measured with a Varioskan microplate reader at λex = 405 nm and λem = 475. Results are expressed as the percentage of the fluorescence increase compared with that of the control. Experiments were performed four times in triplicate.

[3] = system: diffSH-SY5Y cells; assay: Neuroprotection in differentiated SH-SY5Y cells, MTT; type: cell-based, human; conditions: H2O2 500 µM 24 h; 0, 2, 5, 10, 20, and 40 µM 24 h before
[4] = ABTS radical scavenging assay; type: biochemical
Method: The mixture was stored in the dark at room temperature for 16 h. […] All the compounds tested were dissolved in EtOH. […] The degree of decolorization was calculated as the percentage reduction of absorbance. […] Trolox was used as a reference antioxidant.

[5] = system: SH-SY5Y cells; assay: Resazurin cell viability assay under H2O2; type: cell-based, human; conditions: H2O2 250 µM 24 h; Figure 10B
[6] = Chemical reactivity with H2O2; type: physicochemical; conditions: H2O2 500 µM, 37 °C, 4 h, DMEM:F12 without cells
Method: In our case, before running the protection experiments under oxidative stress conditions, we carried out experiments to assess the potential reactivity of compounds 9, 11, 13, and 18 at four different concentrations (5, 10, 20, and 40 µM) with H2O2 500 µM at 37 °C for 4 h in DMEM:F12 (without phenol red, FBS, and cells). Curcumin was used as a control compound.

[7] = Ferric reducing antioxidant power (FRAP) assay; type: biochemical; set-up: FRAP Assay Trolox Equivalents: unit not given here
Method: FRAP reagent was prepared by mixing 10 mL of 300 mM acetate buffer with 1 mL of 10 mM 2,4,6-tripyridyl-S-triazine (TPTZ) in HCl 40 mM and 1mL of FeCl3·6H2O 20 mM. […] Trolox was used as assay control.

For `O=C1CC(c2ccccc2)=Nc2ccccc2N1` [Compound 18, 4-Phenyl-1H-1,5-benzodiazepin-2(3H)-one], the IC50 [1] was > 250 µM, the “intracellular GSH recovery” value [2] was 18–20% and the “Neuroprotection, diffSH-SY5Y cell viability (MTT)” value [3] was “dose-dependent neuroprotectant activity”. For the same compound, the IC50 ([4]; 30-min incubation) was 187 ± 15.2 µM, the “ABTS Assay TEAC50” value ([4]; Equivalent antioxidant capacity at Trolox 50 mM) was 0.36 and the “ABTS Assay TEAC100” value ([4]; Equivalent antioxidant capacity at Trolox 100 mM) was 0.21. For the same compound, the “Neuroprotection, cell viability (resazurin)” value [5] was “significant protection against the oxidative stress insult”, the “Reaction with H2O2” value [6] was “did not show any significant reaction” and the “FRAP Assay Trolox Equivalents” value [7] was 0.89. For the same compound, the “FRAP Assay Antioxidant Capacity (%) at 100 uM” value ([7]; compound at 100 uM) was 45.7% and the “FRAP Assay Antioxidant Capacity (%) at 200 uM” value ([7]; compound at 200 uM) was 65.1%.
